According to patent US20240279201A1, “DUAL WNT SIGNALING PATHWAY INHIBITORS AND AMPK ACTIVATORS FOR TREATMENTS OF DISEASE” (priority 2021, published 2024):

Assays:
[1] = system: Wnt/β-Catenin signaling pathway; test: Wnt signaling luciferase (TOPflash) reporter gene assay; assay type: cell-based; details: for IC50: luciferase reporter gene assay, mean of three independent experiments, read-out: IC50 (nM) to inhibit the Wnt signaling activity
Text: A dual-luciferase gene reporter assay was used to test inhibitory activities of new compounds on Wnt signaling. […] Therefore, the effects of new compounds on AMPK was examined. […]

[2] = Cytotoxicity (CC50) during the luciferase gene reporter assay; assay type: cell-based; details: human, HEK293 cells; short treatment duration of the luciferase gene reporter assay

IC50 [1] [nM] | inhibitory activity in the reporter assay ([1]; biotinylated analogs) | Structure (SMILES) | inhibition at 1 µM [1] [%] | CC50 [2] [nM]
202 |  | Cc1ccccc1-n1nnc(C(=O)Nc2nc3cc(Cl)ccc3s2)c1C [YA4013, N-(5-Chlorobenzo[d]thiazol-2-yl)-5-methyl-1-(o-tolyl)-1H-1,2,3-triazole-4-carboxamide] | 61 | > 92000
8.2 |  | Cc1c(C(=O)Nc2nc3ccccc3s2)cnn1-c1ccccc1 [YA4011, N-(Benzo[d]thiazol-2-yl)-5-methyl-1-phenyl-1H-pyrazole-4-carboxamide] |  | > 92000
17 |  | Cc1c(C(=O)Nc2nc3ccccc3s2)nnn1-c1ccccc1C(F)(F)F [YA6089, N-(Benzo[d]thiazol-2-yl)-5-methyl-1-(2-(trifluoromethyl)phenyl)-1H-1,2,3-triazole-4-carboxamide] | 89 | > 92000
> 1000 |  | Cc1ccccc1-n1nnc(C(=O)Nc2nc3ccc([N+](=O)[O-])cc3s2)c1C [YA4057, 5-Methyl-N-(6-nitrobenzo[d]thiazol-2-yl)-1-(o-tolyl)-1H-1,2,3-triazole-4-carboxamide] |  | > 92000
126 |  | Cc1cccc(Br)c1-n1nnc(C(=O)Nc2nc3ccccc3s2)c1C [YA1064, N-(Benzo[d]thiazol-2-yl)-1-(2-bromo-6-methylphenyl)-5-methyl-1H-1,2,3-triazole-4-carboxamide] | 72 | > 92000
> 1000 |  | O=C(Nc1cnc2ccccc2n1)c1nnn(-c2ccccc2)n1 [YA6177, 2-Phenyl-N-(quinoxalin-2-yl)-2H-tetrazole-5-carboxamide] |  | > 92000
35 |  | Cc1cccc(Cl)c1-n1nnc(C(=O)Nc2nc3ccccc3s2)c1C [YA1068, N-(Benzo[d]thiazol-2-yl)-1-(2-chloro-6-methylphenyl)-5-methyl-1H-1,2,3-triazole-4-carboxamide] | 80 | > 92000
1.4 |  | Cc1ccccc1-n1ncc(C(=O)Nc2nc3ccccc3s2)c1C [YA6179, N-(Benzo[d]thiazol-2-yl)-5-methyl-1-(o-tolyl)-1H-pyrazole-4-carboxamide] |  | > 92000
> 1000 |  | Cc1c(C(=O)Nc2nc3ccccc3s2)nnn1-c1ccc(F)cc1F [YA1046, N-(Benzo[d]thiazol-2-yl)-1-(2,4-difluorophenyl)-5-methyl-1H-1,2,3-triazole-4-carboxamide] | 40 | > 92000
> 1000 |  | Cc1ccccc1-n1nnc(C(=O)Nc2nc3ccc(OC(F)(F)F)cc3s2)c1C [YA4065, 5-Methyl-1-(o-tolyl)-N-(6-(trifluoromethoxy)benzo[d]thiazol-2-yl)-1H-1,2,3-triazole-4-carboxamide] | 16 | > 92000
4.7 |  | Cc1c(C(=O)Nc2nc3ccccc3s2)nnn1-c1cc(F)ccc1F [YA1084, N-(Benzo[d]thiazol-2-yl)-1-(2,5-difluorophenyl)-5-methyl-1H-1,2,3-triazole-4-carboxamide] | 88 | > 92000
> 1000 |  | Cc1ccccc1-n1nnc(C(=O)Nc2ccc3ccccc3n2)n1 [YA70031, N-(Quinolin-2-yl)-2-(o-tolyl)-2H-tetrazole-5-carboxamide] |  | > 92000
> 1000 |  | Cc1ccccc1-n1nnc(C(=O)Nc2cc(Br)c3ccccc3n2)c1C [YA6150, N-(4-bromoquinolin-2-yl)-5-methyl-1-(o-tolyl)-1H-1,2,3-triazole-4-carboxamide] |  | > 92000
> 1000 |  | Cc1cc(C(=O)Nc2nc3ccccc3s2)c(C)n1-c1ccccc1 [YA4136] |  | > 92000
> 1000 |  | Cc1ccccc1-n1nnc(C(=O)Nc2ccc3ccc(Br)cc3n2)c1C [YA1126, N-(7-Bromoquinolin-2-yl)-5-methyl-1-(o-tolyl)-1H-1,2,3-triazole-4-carboxamide] |  | > 92000
> 1000 |  | Cc1ccccc1-n1nnc(C(=O)Nc2nc(-c3ccccc3Cl)cs2)c1C [YA4145] |  | > 92000

IC50 [1] [nM] | inhibitory activity in the reporter assay ([1]; biotinylated analogs) | Structure (SMILES) | inhibition at 1 µM [1] [%] | CC50 [2] [nM]
> 1000 |  | CC(C)c1c(C(=O)Nc2nc3ccccc3s2)cnn1-c1ccccc1 [YA6144, N-(Benzo[d]thiazol-2-yl)-5-isopropyl-1-phenyl-1H-pyrazole-4-carboxamide] |  | > 92000
1.8 |  | Cc1ccccc1-n1nnc(C(=O)Nc2cnc3ccccc3n2)c1C [YA6045, 5-Methyl-N-(quinoxalin-2-yl)-1-(o-tolyl)-1H-1,2,3-triazole-4-carboxamide] |  | > 92000
> 1000 |  | O=C(Nc1ccc2ccccc2n1)c1nnn(-c2ccccc2Cl)n1 [YA70033, 2-(2-Chlorophenyl)-N-(quinolin-2-yl)-2H-tetrazole-5-carboxamide] |  | > 92000
1.3 |  | Cc1c(C(=O)Nc2nc3ccccc3s2)cnn1-c1ccccc1F [YA4007, N-(Benzo[d]thiazol-2-yl)-1-(2-fluorophenyl)-5-methyl-1H-pyrazole-4-carboxamide] |  | > 92000
> 1000 |  | Cc1ccccc1-n1nnc(C(=O)Nc2ccc3ncccc3n2)c1C [YA6147, 5-Methyl-N-(1,5-naphthyridin-2-yl)-1-(o-tolyl)-1H-1,2,3-triazole-4-carboxamide] |  | > 92000
> 1000 |  | Cc1ccccc1-n1nnc(C(=O)Nc2cccc3ncccc23)c1C [YA61693, 5-Methyl-N-(quinolin-5-yl)-1-(o-tolyl)-1H-1,2,3-triazole-4-carboxamide] |  | > 92000
0.4 |  | Cc1c(C(=O)Nc2nc3ccc(F)cc3s2)nnn1-c1ccccc1F [YA4155, N-(6-Fluorobenzo[d]thiazol-2-yl)-1-(2-fluorophenyl)-5-methyl-1H-1,2,3-triazole-4-carboxamide] | 96 | > 92000
1.7 |  | Cc1c(C(=O)Nc2cnc3ccccc3n2)nnn1-c1ccccc1 [YA6141, 5-Methyl-1-phenyl-N-(quinoxalin-2-yl)-1H-1,2,3-triazole-4-carboxamide] |  | > 92000
> 1000 |  | Cc1ccccc1-n1nnc(C(=O)Nc2nc3c(F)cccc3s2)c1C [YA4093, N-(4-Fluorobenzo[d]thiazol-2-yl)-5-methyl-1-(o-tolyl)-1H-1,2,3-triazole-4-carboxamide] | 37 | > 92000
> 1000 |  | Cc1ccccc1-n1nnc(C(=O)Nc2nc(-c3ccccn3)cs2)c1C [YA4173] | 7 | > 92000
> 1000 |  | Cc1ccc(-c2csc(NC(=O)c3nnn(-c4ccccc4C)c3C)n2)c(C)c1 [YA4169] |  | > 92000
 |  | Cc1c(C(=O)Nc2nc3ccccc3s2)nnn1-c1cccc(Cl)c1 [YA4055, N-(Benzo[d]thiazol-2-yl)-1-(3-chlorophenyl)-5-methyl-1H-1,2,3-triazole-4-carboxamide] |  | > 92000
 | maintained inhibitory activities | Cc1ccccc1-n1nnc(C(=O)Nc2ccc3cc(CN4CCN(C(=O)CCOCCOCCOCCOCCNC(=O)CCCC[C@@H]5SC[C@@H]6NC(=O)N[C@@H]65)CC4)ccc3n2)c1C [YA6023] |  | 
599 |  | Cc1cc(/C=C/c2ccc3cc(N(C)C)ccc3[n+]2C)c(C)n1-c1ccccc1 [Pyrvinium, reference compound] | 69 | 
 |  | O=C(Nc1nc2ccccc2s1)c1cnn(-c2ccccc2)c1 [YA6149, N-(Benzo[d]thiazol-2-yl)-1-phenyl-1H-pyrazole-4-carboxamide] |  | > 92000
